From ChEMBL document CHEMBL2062440, “Isolation of spirastrellolides A and B from a marine sponge Epipolasis sp. and their cytotoxic activities” (J Nat Prod, 2012)

tested on: HeLa; assay: Cytotoxicity against human HeLa cells after 72 hrs by MTT assay; assay type: functional, cell-based

| SMILES | IC50 [nM] |
| --- | --- |
| CO[C@H]1CC[C@]23C=C[C@H](C)[C@@H](C[C@@H](O)C[C@H](O)C[C@@H]4CCC[C@H](CC(=O)O[C@H]5C[C@@]6(O[C@H]5C/C=C/C/C=C\C[C@@H](O)C(=O)O)O[C@]5(CC[C@@H]6C)C[C@@H](OC)[C@H](Cl)[C@@H](CC[C@H](C)[C@H](O)[C@H](O)[C@H]1O2)O5)O4)O3 [SPIRASTRELLOLIDE A] | 20 |
| CO[C@H]1C[C@H]2CC[C@H](C)[C@H](O)[C@H](O)[C@H]3O[C@]4(CC[C@@H]3OC)CC[C@H](C)[C@@H](C[C@@H](O)C[C@H](O)C[C@@H]3CCC[C@H](CC(=O)O[C@H]5C[C@@]6(O[C@H]5C/C=C/C/C=C\C[C@@H](O)C(=O)O)O[C@](CC[C@@H]6C)(C1)O2)O3)O4 [SPIRASTRELLOLIDE B] | 40 |
| COC(=O)[C@H](O)C/C=C\C/C=C/C[C@@H]1O[C@@]23C[C@@H]1OC(=O)C[C@H]1CCC[C@@H](C[C@@H](O)C[C@H](O)C[C@H]4O[C@@]5(CC[C@H](OC)[C@H](O5)[C@@H](O)[C@@H](O)[C@@H](C)CC[C@@H]5C[C@H](OC)C[C@](CC[C@@H]2C)(O5)O3)CC[C@@H]4C)O1 [SPIRASTRELLOLIDE B METHYL ESTER] | 70 |
| COC(=O)[C@H](O)C/C=C\C/C=C/C[C@@H]1O[C@@]23C[C@@H]1OC(=O)C[C@H]1CCC[C@@H](C[C@@H](O)C[C@H](O)C[C@H]4O[C@]5(C=C[C@@H]4C)CC[C@H](OC)[C@H](O5)[C@@H](O)[C@@H](O)[C@@H](C)CC[C@H]4O[C@@](CC[C@@H]2C)(C[C@@H](OC)[C@@H]4Cl)O3)O1 [SPIRASTRELLOLIDE A METHYL ESTER] | 30 |
